# Reference: patent US9193728B2, “Fused tetracyclic pyrido [4,3-B] indole and pyrido [3,4-B] indole derivatives and methods of use” (Medivation Technologies, Inc., priority 2010, dated 2015)
# Legend:
# [1] = biological target: T1, human recombinant histamine H2 receptor (Homo sapiens, UniProt P25021); experiment: Histamine H2 radioligand binding ([125I]Aminopotentidine); conditions: compound at 1 μM; 0.1 nM [125I]Aminopotentidine; read-out: Histamine Binding (1 μM) H2, percentage inhibition
# T1 construct: expressed in transfected cells; host or cells: CHO-K1
# Experimental: To evaluate in radioligand binding assays the activity of compounds of the invention, human recombinant histamine H2 receptor expressed in Chinese hamster ovary (CHO) K1 cells (Ruat, M., Proc. Natl. Acad. Sci. USA. 87(5):1658, 1990) in a 50 mM Phosphate buffer, pH 7.4 was used. Compounds of the invention were incubated with 0.1 nM [^125I]Aminopotentidine for 120 min. at 25° C. Non-specific binding was estimated in the presence of 3 μM Tiotidine. Receptor proteins were filtered and washed, the filters were then counted to determine [^125I]Aminopotentidine specifically bound. Compounds were screened at 1 μM or lower, using 1% DMSO as vehicle. Biochemical assay results are presented as the percent inhibition of specific binding in Table 2.
# [2] = biological target: T2, human recombinant serotonin (5-Hydroxytryptamine) 5-HT2A receptor (Homo sapiens, UniProt P28223); experiment: Serotonin 5-HT2A radioligand binding ([3H]Ketanserin); conditions: for inhibition at 0.1 µM / Serotonin (0.1 μM) 5-HT2A, percentage inhibition of ligand binding: compound at 0.1 μM; for inhibition at 0.1 µM: read-out: Serotonin (0.1 μM) 5-HT2A, percentage inhibition of ligand binding
# T2 construct: expressed in transfected cells; host or cells: CHO-K1
# Experimental: To evaluate in radioligand binding assays the activity of compounds of the invention, human recombinant serotonin (5-Hydroxytryptamine) 5-HT2A receptor expressed in Chinese hamster ovary (CHO)-K1 cells (Bonhaus, D. et al, Br. J. Pharmacol. 115:622, 1995; Saucier, C. et al, J. Neurochem. 68:1998, 1997) in a 50 mM Tris-HCl buffer, pH 7.4, was used. Compounds of the invention were incubated with 0.5 nM [^3H]Ketanserin for 60 min. at 25° C. Non-specific binding was estimated in the presence of 1 μM Mianserin. Receptor proteins were filtered and washed, the filters were then counted to determine [^3H]Ketanserin specifically bound. Compounds were screened at 1 μM or lower, using 1% DMSO as vehicle. Biochemical assay results are presented as the percent inhibition of specific binding in Table 4.
# [3] = biological target: T3, human recombinant serotonin (5-Hydroxytryptamine) 5-HT6 receptor (Homo sapiens, UniProt P50406); experiment: Serotonin 5-HT6 radioligand binding ([3H]LSD); conditions: for inhibition at 0.1 µM / Serotonin (0.1 μM) 5-HT6, percentage inhibition of ligand binding: compound at 0.1 μM; for inhibition at 0.1 µM: read-out: Serotonin (0.1 μM) 5-HT6, percentage inhibition of ligand binding
# T3 construct: expressed in transfected cells; host or cells: HeLa
# Experimental: To evaluate in radioligand binding assays the activity of compounds of the invention, human recombinant serotonin (5-Hydroxytryptamine) 5-HT6 receptor expressed in human HeLa cells (Monsma, F. Jr. et al, Mol. Pharmacol. 43:320, 1993) in a modified Tris-HCl buffer (50 mM Tris-HCl, pH 7.4, 150 mM NaCl, 2 mM Ascorbic Acid, 0.001% BSA) was used. Compounds of the invention were incubated with 1.5 nM [3H]Lysergic acid diethylamide (LSD) for 120 min. at 37° C. Non-specific binding was estimated in the presence of 5 μM Serotonin (5-HT). Receptor proteins were filtered and washed, the filters were then counted to determine [3H]LSD specifically bound. Compounds were screened at 1 μM or lower, using 1% DMSO as vehicle. Biochemical assay results are presented as the percent inhibition of specific binding in Table 4.
# [4] = biological target: T4, human recombinant serotonin (5-Hydroxytryptamine) 5-HT7 receptor (Homo sapiens, UniProt P34969); experiment: Serotonin 5-HT7 radioligand binding ([3H]LSD); conditions: for inhibition at 0.1 µM / Serotonin (0.1 μM) 5-HT7, percentage inhibition of ligand binding: compound at 0.1 μM; for inhibition at 0.1 µM: read-out: Serotonin (0.1 μM) 5-HT7, percentage inhibition of ligand binding
# T4 construct: expressed in transfected cells; host or cells: CHO
# Experimental: To evaluate in radioligand binding assays the activity of compounds of the invention, human recombinant serotonin (5-Hydroxytryptamine) 5-HT7 receptor expressed in Chinese hamster ovary (CHO) cells (Roth, B. et al, J. Pharmacol. Exp. Ther. 268:1403, 1994; Shen, Y. et al, J. Biol. Chem. 268:18200, 1993) in a modified Tris-HCl buffer (50 mM Tris-HCl, pH 7.4, 10 mM MgCl2, 0.5 mM EDTA) was used. Compounds of invention were incubated with 5.5 nM [^3H]Lysergic acid diethylamide (LSD) for 120 min. at 25° C. Non-specific binding was estimated in the presence of 10 μM Serotonin (5-HT). Receptor proteins were filtered and washed, the filters were then counted to determine [^3H]LSD specifically bound. Compounds were screened at 1 μM or lower, using 1% DMSO as vehicle. Biochemical assay results are presented as the percent inhibition of specific binding in Table 4.
# [5] = biological target: T5, rat adrenergic α1A receptor (Rattus norvegicus, UniProt P43140); experiment: Adrenergic α1A radioligand binding ([3H]Prazosin); conditions: compound at 0.1 μM; for inhibition at 0.1 µM: read-out: Adrenergic (0.1 μM) a1A, percentage inhibition of ligand binding
# T5 construct: rat adrenergic α1A receptor obtained from Wistar Rat submaxillary glands; from tissue; host or cells: Wistar rat submaxillary glands
# T5 sequence (P43140 1-466): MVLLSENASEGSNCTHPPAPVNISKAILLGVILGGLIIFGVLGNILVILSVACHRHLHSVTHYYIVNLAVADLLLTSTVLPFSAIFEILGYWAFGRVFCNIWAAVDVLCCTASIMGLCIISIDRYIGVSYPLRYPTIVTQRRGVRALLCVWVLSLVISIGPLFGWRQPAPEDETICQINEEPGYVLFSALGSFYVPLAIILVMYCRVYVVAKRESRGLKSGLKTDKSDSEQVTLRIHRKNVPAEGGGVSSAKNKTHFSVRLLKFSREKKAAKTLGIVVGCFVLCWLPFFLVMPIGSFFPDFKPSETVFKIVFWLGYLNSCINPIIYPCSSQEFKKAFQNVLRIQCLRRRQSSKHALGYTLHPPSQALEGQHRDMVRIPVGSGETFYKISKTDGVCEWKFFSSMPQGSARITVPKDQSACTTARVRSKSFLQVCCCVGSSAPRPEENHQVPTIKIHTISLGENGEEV
# Experimental: To evaluate in radioligand binding assays the activity of compounds of the invention, rat adrenergic α1A receptor obtained from Wistar Rat submaxillary glands (Michel, A. et al, Br. J. Pharmacol. 98:883, 1989) in a modified Tris-HCl buffer (50 mM Tris-HCl buffer, pH 7.4, 0.5 mM EDTA) was used. Compounds of the invention were incubated with 0.25 nM [^3H]Prazosin for 60 min. at 25° C. Non-specific binding was estimated in the presence of 10 μM phentolamine. Receptor proteins were filtered and washed, the filters were then counted to determine [^3H]Prazosin specifically bound. Compounds of the invention were screened at 1 μM or lower, using 1% DMSO as vehicle. Biochemical assay results are presented as the percent inhibition of specific binding in Table 3.
# T4 sequence (P34969 whole entry): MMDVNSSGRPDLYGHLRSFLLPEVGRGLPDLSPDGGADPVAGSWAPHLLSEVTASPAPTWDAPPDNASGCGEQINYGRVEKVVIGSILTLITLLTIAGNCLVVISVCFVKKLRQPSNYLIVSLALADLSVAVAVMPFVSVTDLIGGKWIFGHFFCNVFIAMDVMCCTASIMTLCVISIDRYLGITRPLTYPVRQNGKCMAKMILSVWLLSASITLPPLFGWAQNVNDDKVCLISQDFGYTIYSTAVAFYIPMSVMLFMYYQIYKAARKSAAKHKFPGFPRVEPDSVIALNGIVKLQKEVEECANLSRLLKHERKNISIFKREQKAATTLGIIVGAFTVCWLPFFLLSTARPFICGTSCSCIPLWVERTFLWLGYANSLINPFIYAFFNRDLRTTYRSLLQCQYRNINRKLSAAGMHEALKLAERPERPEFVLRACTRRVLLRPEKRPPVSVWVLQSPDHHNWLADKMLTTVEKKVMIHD
# T3 sequence (P50406 whole entry): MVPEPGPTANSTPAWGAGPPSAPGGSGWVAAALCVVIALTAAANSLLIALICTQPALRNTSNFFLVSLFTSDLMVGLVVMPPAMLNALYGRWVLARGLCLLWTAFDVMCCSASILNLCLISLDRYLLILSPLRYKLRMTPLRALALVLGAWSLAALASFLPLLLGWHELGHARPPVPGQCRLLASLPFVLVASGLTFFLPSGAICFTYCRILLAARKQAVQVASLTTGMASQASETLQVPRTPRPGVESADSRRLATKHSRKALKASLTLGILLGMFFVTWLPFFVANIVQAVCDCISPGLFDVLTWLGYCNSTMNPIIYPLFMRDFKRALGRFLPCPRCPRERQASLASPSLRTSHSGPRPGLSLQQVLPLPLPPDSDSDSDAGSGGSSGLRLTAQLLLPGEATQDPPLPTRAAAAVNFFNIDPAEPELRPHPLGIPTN
# T2 sequence (P28223 whole entry): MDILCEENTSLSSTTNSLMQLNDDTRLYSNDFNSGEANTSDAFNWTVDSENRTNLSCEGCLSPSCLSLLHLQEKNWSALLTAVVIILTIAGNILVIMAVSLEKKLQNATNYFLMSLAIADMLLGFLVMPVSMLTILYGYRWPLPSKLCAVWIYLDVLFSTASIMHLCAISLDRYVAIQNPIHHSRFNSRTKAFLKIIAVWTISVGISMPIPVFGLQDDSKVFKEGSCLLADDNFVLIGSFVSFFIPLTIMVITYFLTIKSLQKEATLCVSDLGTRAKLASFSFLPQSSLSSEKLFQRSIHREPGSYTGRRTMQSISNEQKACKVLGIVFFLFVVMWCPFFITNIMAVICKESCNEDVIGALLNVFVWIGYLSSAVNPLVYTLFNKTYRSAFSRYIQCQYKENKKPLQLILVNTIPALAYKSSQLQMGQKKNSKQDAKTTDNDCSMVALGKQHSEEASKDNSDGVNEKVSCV
# T1 sequence (P25021 whole entry): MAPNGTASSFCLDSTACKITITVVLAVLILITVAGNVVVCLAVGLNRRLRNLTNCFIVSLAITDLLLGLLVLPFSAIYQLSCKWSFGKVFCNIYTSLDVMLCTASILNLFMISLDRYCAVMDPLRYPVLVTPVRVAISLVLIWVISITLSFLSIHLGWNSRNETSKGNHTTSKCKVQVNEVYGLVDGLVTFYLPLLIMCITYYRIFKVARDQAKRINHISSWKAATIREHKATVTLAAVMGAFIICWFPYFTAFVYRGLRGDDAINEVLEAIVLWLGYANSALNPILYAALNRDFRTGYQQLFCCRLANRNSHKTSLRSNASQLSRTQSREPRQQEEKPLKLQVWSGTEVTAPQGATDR
SMILES,inhibition at 1 µM [1] [%],inhibition at 0.1 µM [2] [%],"inhibition at 1 µM ([2]; compound at 1 μM, read-out: Serotonin (1 μM) 5-HT2A, percentage inhibition of ligand binding) [%]",inhibition at 0.1 µM [3] [%],"inhibition at 1 µM ([3]; compound at 1 μM, read-out: Serotonin (1 μM) 5-HT6, percentage inhibition of ligand binding) [%]","inhibition at 1 µM ([4]; compound at 1 μM, read-out: Serotonin (1 μM) 5-HT7, percentage inhibition of ligand binding) [%]",inhibition at 0.1 µM [5] [%],inhibition at 0.1 µM [4] [%],"Adrenergic (0.1 μM) a1A, percentage inhibition of ligand binding [5] [%]","Serotonin (0.1 μM) 5-HT2A, percentage inhibition of ligand binding [2] [%]","Serotonin (0.1 μM) 5-HT6, percentage inhibition of ligand binding [3] [%]","Serotonin (0.1 μM) 5-HT7, percentage inhibition of ligand binding [4] [%]"
Cc1cc2c3c(c1)c1c(n3CC(c3ccc(F)cc3)C2)CCN(C)C1 (stereo not drawn) [Compound 3],75,69,94,80,96,53,,,,,,
Cc1cc2c3c(c1)c1c(n3CC(C)(c3ccc(C)nc3)OC(C)C2)CCN(C)C1 (stereo not drawn) [Compound 160],,-4,,-10,,,-5,14,,,,
Cc1cc2c3c(c1)c1c(n3CC(C)(c3ccc(C)nc3)OC2C)CCN(C)C1 (stereo not drawn) [Compound 161],,,,,,,,,−8,−2,−8,−8
Cc1cc2c3c(c1)c1c(n3C[C@@](C)(c3ccncc3)O[C@H]2C)CCN(C)C1 [Compound 162],,7,,-8,,,-3,5,,,,
Cc1cc2c3c(c1)c1c(n3C[C@](C)(c3ccncc3)O[C@H]2C)CCN(C)C1 [Compound 163],,3,,8,,,-17,-3,,,,
Cc1cc2c3c(c1)c1c(n3CC(C)(c3ccc(C)nc3)OC2C)CCN(C)C1 (stereo not drawn) [Compound 164],,,,,,,,,−7,0,−9,−12
Cc1cc2c3c(c1)c1c(n3CC(C)(c3ccncc3)OC(C)C2)CCN(C)C1 (stereo not drawn) [Compound 165],,12,,10,,,11,-2,,,,
